From publication PMC4640066 (Nature Communications, 2015)

Legend:
HeLa cells = assay: γ-Tubulin localization on centrosomes; type: cell-based, human; settings: interphase and mitotic HeLa cells, 6 h
Method: Supplementary Figure 8. Impact of gatastatin on γ-tubulin localization in HeLa cells (a-d) γ-Tubulin localization on centrosome in gatastatin treated HeLa cells. (a) Gatatstatin-treated interphase cells (for 6 h) were analyzed. Red, green and blue in the merged image represent pericentrin, γ-tubulin and DNA, respectively. Scale bar, 5 µm. (b) The γ-tubulin signal around pericentrin in (a) was calculated using ImageJ software from 250 (control) and 166 (gatastatin) centrosomes. Error bars represent S.D. Two-tailed, un-paired Student’s t-test was used to obtain P values. (c) Gatatstatin-treated mitotic cells (for 6 h) were analyzed. Red, green and blue in the merged image represent pericentrin, γ-tubulin and DNA, respectively.
Scale bar, 5 µm. (d) The γ-tubulin signal on pericentrin in (c) was calculated using ImageJ software from 59 (control) and 98 (gatastatin) centrosomes. Error bars represent S.D. Two-tailed, un-paired Student’s t-test was used to obtain P values. γ-Tubulin and pericentrin antibodies were purchased from Sigma (GTU-88, Cat# T6557) and Abcam (Cat# ab4448), respectively.
(1 picture or pasted object on this page, not shown here)

human γ-tubulin = molecular target: T1, human γ-tubulin (Homo sapiens, UniProt P23258); assay: Inhibition of GTP binding of γ-tubulin (α-[32P]-GTP crosslinking assay); settings: 60 μM compound; 70 nM γ-tubulin, 100 nM α-[32P]-GTP; mean±s.d.
T1 construct: myc (C); 6His (C); made in house; host or cells: Sf21 insect cells (baculovirus)
Method: For analysis of the effect of drugs on GTP binding of γ-tubulin, 70 nM of purified human γ-tubulin in GTP-binding buffer (50 mM MES, 5 mM MgCl2, 1 mM EGTA, pH 6.6) was incubated with or without compounds for 15 min at 20 °C. A final concentration of 100 nM of α-[^32P]-GTP was added and incubated at 20 °C for 30 min. After incubation, bound α-[^32P]-GTP was crosslinked to γ-tubulin for 60 s by illumination with a ultraviolet lamp using CL-1000 Ultraviolet Crosslinker. Protein with the crosslinked GTP was separated from unbound nucleotide by TCA precipitation and SDS–PAGE, and ^32P labelling was measured using a Typhoon FLA-7000 (General Electronic Company). Band intensities were quantified with the ImageJ software.

α/β-tubulin = molecular target: T2, α/β-tubulin (Sus scrofa, UniProt P02550+P02554); assay: Tryptophan-based drug-binding assay, α/β-tubulin; design: species or system porcine; settings: tryptophan fluorescence decrease; 1 μM protein; mean±s.d., three independent experiments
T2 construct: α/β-Tubulin was purified from porcine brain; from tissue; host or cells: porcine brain
Method: γ-TuSC was purified as described. Briefly, γ-TuSC was expressed in HighFive cells and purified by sequential steps of Ni-NTA (Macherei-Nagel) purification, MonoQ column purification (GE Healthcare) and size exclusion (Superdex 200 column, GE Healthcare)[14]. α/β-Tubulin was purified from porcine brain through four cycles of polymerization and depolymerization using 1 M PIPES buffer (1 M PIPES-KOH, 1 mM EGTA, 1 mM MgCl2, pH 6.8) for effective removal of MT-associated proteins.
Gel filtration buffer for γ-tubulin purification (50 mM MES pH 6.6, 500 mM KCl, 5 mM MgCl2, 1 mM EGTA and 1 mM DTT) supplemented with 10% of glycerol was used as an assay buffer. γ-tubulin and α/β-tubulin were diluted in this assay buffer to reach a final protein concentration of 1 μM. A final concentration of 10 μM or 1 mM GTP was added to the samples. Proteins were incubated for 30 min with compounds (final DMSO concentration was 1%; 2% for AG1 and gatastatin). […] Dissociation constants were calculated from fitting curves of decreasing fluorescence (ΔFL) using the GraphPad Prizm software.

T2 sequence (P02554 whole entry): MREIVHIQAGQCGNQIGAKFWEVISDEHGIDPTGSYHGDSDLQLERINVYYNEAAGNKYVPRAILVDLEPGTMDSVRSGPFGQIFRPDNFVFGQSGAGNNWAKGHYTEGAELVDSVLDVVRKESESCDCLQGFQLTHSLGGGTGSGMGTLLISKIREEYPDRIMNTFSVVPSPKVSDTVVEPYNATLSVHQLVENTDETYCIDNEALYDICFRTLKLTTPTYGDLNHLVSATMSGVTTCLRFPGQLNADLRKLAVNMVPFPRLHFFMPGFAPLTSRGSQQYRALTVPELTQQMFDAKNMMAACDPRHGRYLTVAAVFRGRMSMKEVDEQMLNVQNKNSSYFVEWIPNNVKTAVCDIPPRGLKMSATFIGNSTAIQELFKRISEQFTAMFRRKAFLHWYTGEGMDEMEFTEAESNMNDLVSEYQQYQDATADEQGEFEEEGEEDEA
T2 sequence (P02550 whole entry): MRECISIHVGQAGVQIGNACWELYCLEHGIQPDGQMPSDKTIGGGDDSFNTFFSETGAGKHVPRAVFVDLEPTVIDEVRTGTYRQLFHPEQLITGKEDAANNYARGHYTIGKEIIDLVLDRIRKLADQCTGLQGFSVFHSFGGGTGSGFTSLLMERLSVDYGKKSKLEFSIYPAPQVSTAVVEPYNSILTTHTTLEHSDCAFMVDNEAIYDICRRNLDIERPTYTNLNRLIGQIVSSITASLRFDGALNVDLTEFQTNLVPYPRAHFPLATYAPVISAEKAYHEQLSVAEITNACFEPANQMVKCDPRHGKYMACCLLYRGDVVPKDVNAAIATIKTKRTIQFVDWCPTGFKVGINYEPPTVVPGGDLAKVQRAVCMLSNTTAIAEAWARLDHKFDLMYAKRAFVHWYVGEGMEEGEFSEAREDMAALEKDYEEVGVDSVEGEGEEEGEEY
T1 sequence (P23258 whole entry): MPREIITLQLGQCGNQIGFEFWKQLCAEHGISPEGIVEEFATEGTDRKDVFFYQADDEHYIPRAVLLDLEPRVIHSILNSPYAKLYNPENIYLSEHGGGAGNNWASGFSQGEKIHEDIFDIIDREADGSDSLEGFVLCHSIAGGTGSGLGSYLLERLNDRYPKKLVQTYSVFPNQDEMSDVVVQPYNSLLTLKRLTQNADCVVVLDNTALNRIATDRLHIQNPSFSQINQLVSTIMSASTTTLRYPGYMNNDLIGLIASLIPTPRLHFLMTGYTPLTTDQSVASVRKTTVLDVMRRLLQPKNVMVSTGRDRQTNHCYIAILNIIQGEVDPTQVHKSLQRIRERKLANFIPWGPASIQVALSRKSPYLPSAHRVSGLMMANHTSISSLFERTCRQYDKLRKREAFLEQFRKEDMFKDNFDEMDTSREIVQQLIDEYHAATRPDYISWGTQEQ

**Q.** With `COc1cc2c(=O)c(-c3cc(OC)c4c(c3OC)OCO4)coc2cc1OCc1ccccc1` [Gatastatin, O^7-demethylbenzyl AG1] as the compound, how does the “γ-Tubulin localization to centrosomes” value (HeLa cells) read?
**A.** not affected

**Q.** What about the “GTP binding (control %)” value (human γ-tubulin) of the same compound?
**A.** 6.7±3.7%

**Q.** And the Kd (α/β-tubulin)?
**A.** 42.5 ± 36.7 µM
